Experimental findings from patent publication US12496329B2, “Methods of using and compositions including an incretin analog” (Eli Lilly and Company, priority 2021, dated 2025) are described below.

Assay type in all cases: in vivo, human
Data set [1] is described as follows: SAD study: safety and tolerability. An excerpt: Studies are designed to evaluate the safety, tolerability, pharmacodynamics (PD) and pharmacokinetics (PK) of the GGG tri-receptor agonist (SEQ ID NO:1) in healthy individuals. The SAD study is a randomized, investigator- and participant-blind, placebo-controlled, single-dose, single-site, dose-escalation study conducted in healthy individuals (e.g., overtly healthy females or males aged 21-65 years, inclusive, with a BMI 19-40 kg/m^2 at screening).
Six dose levels of the GGG tri-receptor agonist-0.1, 0.3, 1.0, 3.0, 4.5 and 6.0 mg—are explored in the SAD study, as well as placebo (i.e., 0.0 mg). A dose escalation of the GGG tri-receptor agonist is assessed in cohorts of healthy individuals (e.g., 6 individuals receiving the GGG tri-receptor agonist and 2 individuals receiving placebo per cohort). Staggered dosing is performed for each cohort, in which a new higher dose of the GGG tri-receptor agonist is administered. All injections are administered into the SC tissue of an abdominal wall, in a right or left lower quadrant.
Safety analyses: Safety parameters assessed during the study included: AEs (with special interest to GI AEs such as nausea, vomiting, and diarrhea), laboratory parameters (with special attention to hepatic and pancreatic biomarkers), physical examinations/medical assessments, vital signs and ECGs, BW, injection site reactions, hypersensitivity reactions, and glucose monitoring (with special attention to hypoglycemia).

Another data set is described as follows: Phase 2 study for T2DM. Particulars: 16 week data; start 1 or 2 mg, steps of 1, 2, 3 or 4 mg to maximum 12 mg QW SC. An excerpt:
Studies are designed to further evaluate the effectiveness and safety of the GGG tri-receptor agonist (SEQ ID NO: 1) in a larger population of individuals with diabetes. The study is a randomized, investigator- and participant-blind, placebo-controlled study conducted in individuals with diabetes (i.e., females or males aged 18-75 years, inclusive, with T2DM for at least 3 months and HbA1c at lead-in and screening of ≥7.0% and ≤10.5% and treated with diet and exercise alone or a stable dose of metformin for at least 3 months prior to screening, with stable body weight for 3 months prior to randomization and with a BMI of 25-50 kg/m^2 at screening).
Dose escalation of the GGG tri-receptor agonist is assessed over 36 weeks in cohorts administered the GGG tri-receptor agonist, dulaglutide or placebo. A first cohort of 50 individuals is administered 2.0 mg of the GGG tri-receptor agonist for Weeks 1-4, 4.0 mg for the Weeks 5-8, 8.0 mg for Weeks 9-12, and then 12.0 mg for Weeks 13-36. […] A third cohort of 20 individuals is administered 2.0 mg of the GGG tri-receptor agonist for Weeks 1-4, 4.0 mg for Weeks 5-8, and then 8.0 mg for Weeks 9-36. […]
Blood samples are collected pre-dose and at Week 24 for HbA1c. […] In addition, change in body weight (kg) is assessed from baseline to Week 24 and to Week 36. […]

Data set [2] can be described thus: Phase 2 study for obesity and NAFLD. As to conditions: 16 week data; dose range 2-12 mg; steps of 1, 2, 3 or 4 mg QW SC. From the text:
Studies are designed to further evaluate the effectiveness and safety of the GGG tri-receptor agonist (SEQ ID NO:1) in a larger population of obese individuals or overweight individuals. The study is a randomized, investigator- and participant-blind, placebo-controlled study conducted in obese individuals or overweight individuals without diabetes (i.e., females or males aged 18-75 years, inclusive, with obesity prior to randomization and with a BMI of ≥30 kg/m^2 at screening or overweight prior to randomization and with a BMI of ≥27 kg/m^2 […] <30 kg/m^2 at screening with weight-related comorbidities but without T2DM).
Dose escalation of the GGG tri-receptor agonist is assessed over 36 weeks in cohorts administered the GGG tri-receptor agonist, dulaglutide or placebo. A first cohort of 60 individuals is administered 2.0 mg of the GGG tri-receptor agonist for Weeks 1-4, 4.0 mg for the Weeks 5-8, 8.0 mg for Weeks 9-12, and then 12.0 mg for […]. […] An additional 125 individuals are assessed for NAFLD, which is characterized by ≥10% liver fat by magnetic resonance imaging proton density fat fraction (MRI-PDFF).
Body weight is assessed at pre-dose and at Week 24 and at Week 48 for % change in body weight. Mean change in waist circumference (cm) is measured at Week 24 or Week 48. […]

Take `CC[C@H](C)[C@H](NC(=O)[C@H](Cc1ccccc1)NC(=O)[C@H](C)NC(=O)C(C)(C)NC(=O)[C@H](CCC(N)=O)NC(=O)[C@H](C)NC(=O)[C@H](CCCCNC(=O)COCCOCCNC(=O)CC[C@H](NC(=O)CCCCCCCCCCCCCCCCCCC(=O)O)C(=O)O)NC(=O)[C@H](CCCCN)NC(=O)[C@H](CC(=O)O)NC(=O)[C@H](CC(C)C)NC(=O)[C@](C)(CC(C)C)NC(=O)[C@@H](NC(=O)[C@H](CO)NC(=O)[C@H](Cc1ccc(O)cc1)NC(=O)[C@H](CC(=O)O)NC(=O)[C@H](CO)NC(=O)[C@@H](NC(=O)[C@H](Cc1ccccc1)NC(=O)[C@@H](NC(=O)CNC(=O)[C@H](CCC(N)=O)NC(=O)C(C)(C)NC(=O)[C@@H](N)Cc1ccc(O)cc1)[C@@H](C)O)[C@@H](C)O)[C@@H](C)CC)C(=O)N[C@@H](CCC(=O)O)C(=O)N[C@@H](Cc1ccc(O)cc1)C(=O)N[C@@H](CC(C)C)C(=O)N[C@@H](CC(C)C)C(=O)N[C@@H](CCC(=O)O)C(=O)NCC(=O)NCC(=O)N1CCC[C@H]1C(=O)N[C@@H](CO)C(=O)N[C@@H](CO)C(=O)NCC(=O)N[C@@H](C)C(=O)N1CCC[C@H]1C(=O)N1CCC[C@H]1C(=O)N1CCC[C@H]1C(=O)N[C@@H](CO)C(N)=O` [GGG tri-receptor agonist, Y-Aib-QGTFTSDYSI-αMeL-LDKK((2-[2-(2-amino-ethoxy)-ethoxy]-acetyl)-(γGlu)-CO-(CH2)18-CO2H)AQ-Aib-AFIEYLLEGGPSSGAPPPS-NH2]: the “incidence of GI AEs (emesis, nausea)” value in data set [1] (Phase 1 dosing study, 6.0 mg or higher doses) is “higher-than-expected incidence of GI AEs”. Also, in data set [1] (single SC dose), the “individuals reporting TEAEs” value worked out at 97.1% and the injection-site reactions result is reported as “No injection-site reactions”. Also, the “individuals reporting TEAEs related to study treatment” value in data set [1] (single SC dose, 20 individuals) is reported as 57.1%. The hypoglycemic episodes entry in data set [1] (single SC dose, all asymptomatic) is “low across all groups”. Also, in data set [1] (single SC dose, dose-dependent), the “severity of AEs” value was “mild to moderate in severity”. The pulse rate result in data set [1] (single SC dose, returned to baseline or near-baseline by Day 29) is “Dose-related increases in pulse rate”. The tolerability entry in data set [1] (single SC doses of 0.1, 0.3, 1.0 and 3.0 mg) is “well tolerated”. The “incidence of GI events (vomiting, abdominal distension, nausea)” value in data set [1] (single SC doses of 4.5 and 6.0 mg) is “increased incidence of GI events”. In “Phase 2 study for T2DM”, the “tolerability profile of dosing regimens” value is reported as “acceptable tolerability profiles”. Moreover, the “tolerability profile of dosing regimens” value in data set [2] was “acceptable tolerability profiles”.
